According to patent US8722723B2, “Aromatic amide derivative” (Research Foundation Itsuu Laboratory, priority 2008, dated 2014):

What was measured:
luciferase (Luc) = test: Reporter assay: Hela cells transfected with human RORα1 expression vector and luciferase (Luc) reporter vector; Luc activity corrected with β-Gal activity; type: cell-based, firefly; design: key: β-Gal-corrected Luc activity; smaller = inhibition, larger = promotion; settings: human RORα1 expression vector, rev-DR2/TK-Luc reporter, about 1 day, smaller number = inhibitory, larger = promoting
Description: The reporter assay was used, in which Hela cells transfected with each of a pcDNA3 vector incorporated with the human RORα1 so that the gene can be expressed in animal cells as an expression vector, and a pGL3 promoter vector of which SV40 promoter was replaced with TK promoter as a luciferase expression reporter vector were used.
The Hela cells were placed at a density of 2×10^4 cells/0.1 mL/well on a 96-well cell culture plate (FALCON) by using 10% FBS-DMEM. On the next day, the human RORα1 expression vector, the reporter vector incorporated with 3 copies of rev-DR2 sequences and the HSV thymidine kinase promoter at a position upstream from the luciferase (Luc) gene, and a β-galactosidase (β-Gal) expression vector for control were introduced into the cells by using a transfection reagent (Fugene6, Roche). On the next day, the medium was replaced with 5% FBS-DMEM containing a test compound diluted at a prescribed concentration, after about 1 day, the cell supernatant was removed, then the cells were lysed (Passive Lysis buffer, Promega), the Luc substrate (PicaGene, Toyo Ink) was added to a part of the lysed cells, and the activity of produced Luc was measured as luminescence intensity. Further, the β-Gal activity was measured as intensity of fluorescence generated when 4-methylumbelliferyl β-D-galactoside was added as a substrate, and the activity of Luc corrected for the transfection efficiency with the β-Gal activity was used as the index for evaluation. A smaller number indicates inhibitory action, and a larger number indicates promoting action.

Row | SMILES | melting point [°C] | activity of Luc corrected for the transfection efficiency with the β-Gal activity (luciferase (Luc); test compound 1 μM) | activity of Luc corrected for the transfection efficiency with the β-Gal activity (luciferase (Luc); test compound 10 μM) | activity of Luc corrected for the transfection efficiency with the β-Gal activity (luciferase (Luc); test compound 0.01 μM) | activity of Luc corrected for the transfection efficiency with the β-Gal activity (luciferase (Luc); test compound 0.1 μM)
1 | CCCc1ccc(N2Cc3ccc(N(C)C)cc3C2=O)cc1 [Compound 2, 6-dimethylamino-2-(4-propyl-phenyl)-isoindol-1-one] | 141 to 142 | 2.8 | 3.0 | – | –
2 | CCCCCCCc1ccc(N2Cc3cc(N(C)C)ccc3C2=O)cc1 [Compound 7, 5-dimethylamino-2-(4-n-heptyl-phenyl)-isoindol-1-one] | 133 to 134 | 1.1 | 1.1 | 1.0 | 1.1
3 | CCCCCCCCc1ccc(N2Cc3ccc(N(C)C)cc3C2=O)cc1 [Compound 10, 6-dimethylamino-2-(4-n-octyl-phenyl)-isoindol-1-one] | 100 to 101 | 0.3 | 0.4 | 0.9 | 0.7
4 | COc1ccc(N2Cc3cccc(N(C)C)c3C2=O)cc1 [Compound 14, 7-dimethylamino-2-(4-methoxyphenyl)-2,3-dihydro-isoindol-1-one] | 145 to 146 | 3.1 | 2.4 | 1.9 | 2.6
5 | CN(C)c1ccc2c(c1)C(=O)N(c1ccc(CCCC(=O)O)cc1)C2 [Compound 18, 4-[4-(6-dimethylamino-1-oxo-1,3-dihydro-isoindol-2-yl)-phenyl]-butyric acid] | 186 to 187 | 0.0 | 0.0 | 0.1 | 0
6 | COC(=O)CCc1ccc(N2Cc3ccc(N(C)C)cc3C2=O)cc1 [Compound 21, 3-[4-(6-dimethylamino-1-oxo-1,3-dihydro-isoindol-2-yl)-phenyl]-propionic acid methyl ester] | 123 to 124 | – | – | – | –
7 | CN(C)c1ccc2c(c1)C(=O)N(c1ccc(CCC(=O)O)cc1)C2 [Compound 22, 3-[4-(6-dimethylamino-1-oxo-1,3-dihydro-isoindol-2-yl)-phenyl]-propionic acid] | 200 to 201 | – | – | – | –
8 | CCOC(=O)C=Cc1ccc(N2Cc3ccccc3C2=O)cc1 [Compound 23, 3-[4-(1-oxo-1,3-dihydro-isoindol-2-yl)-phenyl]-acrylic acid ethyl ester] | 184 to 185 | 0.6 | 0.5 | 0.8 | 0.9
9 | COC(=O)COc1ccc(N2Cc3ccc([N+](=O)[O-])cc3C2=O)cc1 [Compound 25, [4-(6-nitro-1-oxo-1,3-dihydro-isoindol-2-yl)-phenoxy]-acetic acid methyl ester] | 238 to 239 | – | – | – | –
10 | COC(=O)COc1ccc(N2Cc3ccc(N)cc3C2=O)cc1 [Compound 26, [4-(6-amino-1-oxo-1,3-dihydro-isoindol-2-yl)-phenoxy]-acetic acid methyl ester] | 197 to 198 | – | – | – | –
11 | COC(=O)COc1ccc(N2Cc3ccc(N(C)C)cc3C2=O)cc1 [Compound 27, [4-(6-dimethylamino-1-oxo-1,3-dihydro-isoindol-2-yl)-phenoxy]-acetic acid methyl ester] | 167 to 168 | – | – | – | –

Continued, in another order:

Row | melting point [°C] | SMILES | activity of Luc corrected for the transfection efficiency with the β-Gal activity (luciferase (Luc); test compound 1 μM) | activity of Luc corrected for the transfection efficiency with the β-Gal activity (luciferase (Luc); test compound 10 μM) | activity of Luc corrected for the transfection efficiency with the β-Gal activity (luciferase (Luc); test compound 0.01 μM) | activity of Luc corrected for the transfection efficiency with the β-Gal activity (luciferase (Luc); test compound 0.1 μM)
12 | 206 to 208 | CN(C)c1ccc2c(c1)C(=O)N(c1ccc(OCC(=O)O)cc1)C2 [Compound 28, [4-(6-dimethylamino-1-oxo-1,3-dihydro-isoindol-2-yl)-phenoxy]-acetic acid] | 0.2 | 0.1 | 1.1 | 0.8
13 | 172 to 173 | O=C(O)CCCc1ccc(N2Cc3ccc(F)cc3C2=O)cc1 [Compound 29, 4-[4-(6-fluoro-1-oxo-1,3-dihydro-isoindol-2-yl)-phenyl]-butyric acid] | 0.0 | 0.0 | 0.5 | 0.2
14 | 68 to 69 | CCCCCCCNc1cccc2c1CN(c1cc(C)cc(C)c1)C2=O [Compound 33, 2-(3,5-dimethyl-phenyl)-4-heptylamino-2,3-dihydro-isoindol-1-one] | – | – | – | –
15 | 127 to 128 | CN(C)c1cccc(C(=O)Nc2ccc(CCCC(=O)O)cc2)c1 [Compound 34, 4-[4-(3-dimethylamino-benzoylamino)-phenyl]-butyric acid] | – | – | – | –
16 | 108 to 109 | CCOC(=O)CCCc1ccc(NC(=O)c2cc([N+](=O)[O-])ccc2C)cc1 [Compound 37, 4-[4-(2-methyl-5-nitro-benzoylamino)-phenyl]-butyric acid ethyl ester] | – | – | – | –
17 | 172 to 173 | Cc1ccc([N+](=O)[O-])cc1C(=O)Nc1ccc(CCCC(=O)O)cc1 [Compound 38, 4-[4-(2-methyl-5-nitro-benzoylamino)-phenyl]-butyric acid] | – | – | – | –
18 | 126 to 127 | CCOC(=O)CCCc1ccc(NC(=O)c2cc(C)ccc2[N+](=O)[O-])cc1 [Compound 39, 4-[4-(5-methyl-2-nitro-benzoylamino)-phenyl]-butyric acid ethyl ester] | – | – | – | –
19 | 152 to 153 | Cc1ccc([N+](=O)[O-])c(C(=O)Nc2ccc(CCCC(=O)O)cc2)c1 [Compound 40, 4-[4-(5-methyl-2-nitro-benzoylamino)-phenyl]-butyric acid] | 0.8 | 0.8 | 0.8 | 0.9
